The experiment deals with colorectal cell line (HT29). As to the kind of experiment: XTT-assay proliferation rate, colorectal cell line HT29. Format: cell-based, human. Here is the method:
Commercially available human tumor cell lines were purchased from ATCC (ATCC/LGC-standards, Borás, Sweden). Cell lines from urinary bladder (UM-UC-3, #CRL-1749), colorectal carcinoma (Colo205, #CCL-222 and HT29, #HTB-38), prostate carcinoma (LNCaP, #CRL-1740) and breast carcinoma (ZR-75-1, #CRL-1500) were purchased and stored in liquid nitrogen. Cells were cultured in Roswell Park Memorial Institute media (RPMI-1640) or minimum essential medium with Earl's salts (EMEM) supplemented with 10% Foetal calf serum (FCS, Sigma) and cultured using a 37° C. cell culture incubator (Forma Scientific, NinoLab, Kungsbacka, Sweden) with 5% CO2 humidified atmosphere. Tumor cell lines were handled aseptically using a laminar airflow (LAF) bench (Holten 2448, Ninolab, Sweden) and stored in a liquid nitrogen tank and were initiated in culture as previously described (Falk P. Experimental models of the peritoneal environment: Effects of TGF-beta and Hyaluronan. Göteborg: University of Gothenburg; 2008). Briefly, ampoules of frozen cells were thawed by submerging into a 37° C. water bath for 45 s. Cells were resuspended in 10 ml of preheated RPMI-1640 with 10% FCS and centrifuged in 260 g for 10 min. With supernatant discarded, cell pellets were further resuspended with 5 ml complete medium into 25 cm^2 cell culture flasks (Cell+, Sarstedt, Nümbrecht, Germany). Tumor cells were cultured until sub-confluence and further sub-cultured with Trypsin (0.5%), EDTA (0.2%) solution (T4174, TE-10x, Sigma) in sterile sodium chloride. Culture media was changed two-three times a week. Culture flasks (Cell+, Sarstedt, Nümbrecht, Germany) and culture plates (Falcon/BD, Franklin Lakes, N.J., USA) were used for experimental set-ups. Cells were regularly monitored using an inverted microscope connected to a digital photo equipment (Axiovert 25 and Axiovision, Zeiss, Carl Zeiss AG, Germany) (FIG. 1). Described culture techniques and equipment have been used extensively in the laboratory
The proliferation rates of the different human tumor cell lines were studied using a method based on the conversion of a sodium salt (XTT-assay, Sigma) into a stable orange color that could be analyzed in a spectrophotometer. The color change is proportional to the mitochondrial dehydrogenase activity resulting in an effective technique for measuring cell toxicity (Roehm N W, Rodgers G H, Hatfield S M, Glasebrook A L. An improved colorimetric assay for cell proliferation and viability utilizing the tetrazolium salt XTT. J Immunol Methods 1991;142(2):257-65) or cell proliferation. The color change was measured using a 96-well plate reader with software to calculate the absorbance at 450 nm (V-max/Softmax Pro, Molecular Devices, USA). Cells were cultured until approx 50% confluence and then pre-incubated for 24 h with RPMI-1640 or EMEM containing 1% FCS only. RPMI 1640 and EMEM without phenol red was used during the experiments to reduce the red color background signal in the XTT-assay.
Prior to the experimental start all cells were gently washed once with RPMI 1640 and EMEM with 1% FCS. Increasing concentrations of substance ivermectin was added with an 8-channel pipette (Titertek, Kem-En-Tec, Taastrup, Denmark) together with sterile pipette tips (Molecular Bioproducts, San Diego, Calif., USA). Cell cultures including active substances were incubated for 24 hours (and 96 hours). Untreated wells including culture medium only served as untreated controls. The XTT-assay substrate was added and after gentle agitation using a micro plate shaker, absorbencies at 450 and 650 nm were measured. Levels from medium were subtracted and compared with control wells, using culture medium only.

As for “22,23-dihydroavermectin B1a+22,23-dihydroavermectin B1b [ivermectin]”, the “Proliferation rate in per cent compared to untreated medium control” value came out at 109 ± 14% (ivermectin 10e-9 mol/L); 112 ± 12% (ivermectin 10e-8 mol/L); 106 ± 9% (ivermectin 10e-7 mol/L); 91 ± 5% (ivermectin 10e-6 mol/L); 85±11% (ivermectin 10e-5 mol/L); 5±1% (ivermectin 10e-4 mol/L). For the same substance, the “Effect on proliferation rate” value (ivermectin 100 μM) is listed as “decreased proliferation rate”.
